Experimental findings from BindingDB's records for doi:10.1021/jm950817g (Institute, 1996) are described below.

A short description of this test: Activity was evaluated by inhibition of the binding of 1 nM [3H]DPDPE at Opioid receptor delta 1 binding site.
Compound `COC[C@]12Cc3ccc(O)cc3[C@](C)(CCc3nnnn31)C2` [1-methoxymethyl-9-methyl-(1S,9R)-2,3,4,5-tetraazatetracyclo[7.7.1.02,6.010,15]heptadeca-3,5,10(15),11,13-pentaen-12-ol] came in with a Ki of over 10 µM. Next, `CN1CNC2CCC3(C)CC2(Cc2ccc(O)cc23)C1` (stereo unspecified) [3,9-dimethyl-3,5-diazatetracyclo[7.7.1.01,6.010,15]heptadeca-10,12,14-trien-12-ol]: 0.863 µM; `CN1CC23Cc4ccc(O)cc4C(C)(CCC12)C3` (stereo unspecified) [9,13-dimethyl-13-azatetracyclo[7.5.1.01,12.03,8]pentadeca-3,5,7-trien-6-ol]: over 10 µM; `CNC1CCC2(C)CC1(CO)Cc1ccc(O)cc12` (stereo unspecified) [9-Hydroxymethyl-1-methyl-10-methylamino-tricyclo[7.3.1.0*2,7*]trideca-2,4,6-trien-4-ol]: over 1000 µM. Next, `CNCC12Cc3ccc(O)cc3C(C)(CCC1N)C2` (stereo unspecified) [10-Amino-1-methyl-9-methylaminomethyl-tricyclo[7.3.1.0*2,7*]trideca-2,4,6-trien-4-ol]: 0.459 µM; `CC12CCC(N)C(CO)(Cc3ccc(O)cc31)C2` (stereo unspecified) [10-Amino-9-hydroxymethyl-1-methyl-tricyclo[7.3.1.0*2,7*]trideca-2,4,6-trien-4-ol]: over 1000 µM. Next, `COCC12Cc3ccc(O)cc3C(C)(CCC1N)C2` (stereo unspecified) [10-Amino-9-methoxymethyl-1-methyl-tricyclo[7.3.1.0*2,7*]trideca-2,4,6-trien-4-ol]: 0.467 µM; `CN(C)C1CCC2(C)CC1(C)Cc1ccc(O)cc12` (stereo unspecified) [10-Dimethylamino-1,9-dimethyl-tricyclo[7.3.1.0*2,7*]trideca-2,4,6-trien-4-ol]: 10 µM; `CN(C)C1CCC2(C)CC1(CO)Cc1ccc(O)cc12` (stereo unspecified) [10-Dimethylamino-9-hydroxymethyl-1-methyl-tricyclo[7.3.1.0*2,7*]trideca-2,4,6-trien-4-ol]: over 1000 µM. On to `COCC12Cc3ccc(O)cc3C(C)(CCC1N(C)C)C2` (stereo unspecified) [10-Dimethylamino-9-methoxymethyl-1-methyl-tricyclo[7.3.1.0*2,7*]trideca-2,4,6-trien-4-ol], for which the Ki came out at 1.4 µM. As for `COC[C@]12Cc3ccc(O)cc3[C@](C)(CCCN1C)C2` [(1R,9R)-9-Methoxymethyl-1,10-dimethyl-10-aza-tricyclo[7.4.1.0*2,7*]tetradeca-2(7),3,5-trien-4-ol], the figure is over 5 µM.

As usually defined, the Ki is a measure of affinity in units of concentration, obtained from inhibition or displacement.
